Data published in patent US12173088B2, “Anti-microbial peptides” (priority 2018, dated 2024).
In brackets after ≈: the same amount, converted by molar mass. Where two headings read alike, the source gives them in different places. Peptide text beside a SMILES is read from it.

Columns and labels:
S. aureus M838-17 (MRSA) = experiment: microbe, parasite or virus in culture; assay type: cell-based, Staphylococcus aureus; details: for MIC: read-out: MIC S. aureus M838-17 (MRSA)
Summary of the method: (§1)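 Peptides were serially diluted two-fold against bacteria grown in tryptic soy broth to log phase (OD600 ≈0.5), then seeded at OD600 0.001. Plates were held overnight at 37° C and read at 630 nm. USA300 was also tested at pH 6.8, 7.2 and 8.0, with 150 mM NaCl or 5-10% serum, plasma or peritoneal fluid.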

S. aureus USA300 = experiment: microbe, parasite or virus in culture; assay type: cell-based, Staphylococcus aureus
Summary of the method: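 Broth microdilution: log-phase cultures in tryptic soy broth diluted to OD600 0.001, exposed to two-fold diluted peptides at 37° C overnight, growth read at 630 nm. Medium effects on S. aureus USA300 tested with up to 200 mM NaCl, 2 mM CaCl2, 5-10% human serum, mouse plasma, fluids or tissue homogenate supernatants.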

P. aeruginosa E411-17 = experiment: microbe, parasite or virus in culture; assay type: cell-based, Pseudomonas aeruginosa
Summary of the method: as §1

E. coli E423-17 = experiment: microbe, parasite or virus in culture; assay type: cell-based, Escherichia coli
Summary of the method: as §1

E. faecium V286-17 (VRE) = experiment: microbe, parasite or virus in culture; assay type: cell-based, Enterococcus faecium
Summary of the method: as §1

K. pneumoniae E406-17 = experiment: microbe, parasite or virus in culture; assay type: cell-based, Klebsiella pneumoniae
Summary of the method: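 Broth microdilution in tryptic soy broth: log-phase cultures (OD600 ≈0.5) diluted to OD600 0.001, given two-fold peptide dilutions, incubated overnight at 37° C. Growth read at 630 nm.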

[1] = In vivo toxicity after i.p. injection; design: species or system mice; details: for Animal death: 10, 20, and 30 mg/kg i.p., five-day experiment; for Mobility: higher peptide doses
Procedure: Because DFT561 had crossed multiple in vitro barriers (Table 5), its in vivo toxicity and efficacy was tested. A well-established neutropenic mouse model was used, which is often utilized to evaluate the efficacy of antibiotics and peptide mimics (Ambrose, et al. (2012) Clin. Infect. Dis., 54(3):S220-8; Radzishevsky, et al. (2007) Nat. Biotechnol., 25:657-659). In this model, the effect of immune cells on bacterial killing is minimized via two injections of cyclophosphamide before infection (FIG. 5). To evaluate the safety of the peptide in vivo, the toxicity of DFT561 injected intraperitoneally (i.p.) was compared at […] per mouse. […] In addition, alanine transaminase normally resides in serum and tissues but can be released after liver injury. Differences in a quantitative alanine transaminase assay of liver homogenates from mice treated at 0, 10, and 20 mg/kg was not observed.
Neutropenic mice are widely accepted for systemic efficacy evaluation of antibiotics (Zhao, et al. (2016) Bioorg. Med. Chem. 24:6390-6400; Craig, et al. (1991) J. Antimicrob. Chemother., 27:29-40). This model enables better evaluation of compound potency by minimizing the bacterial clearance effect of the immune system. Using this model, the efficacy of horine against S. aureus USA300 and verine against K. pneumonia E406-17 was tested. C57BL/6 mice were made neutropenic by two injections of cyclophosphamide intraperitoneally (i.p.). The acute toxicity of horine and verine was investigated by i.p. injecting them into mice at 10, 20, and 30 mg/kg body weight.

A. baumannii B26-16 = experiment: microbe, parasite or virus in culture; assay type: cell-based, Acinetobacter baumannii
Summary of the method: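 Broth microdilution in tryptic soy broth: log-phase cultures diluted to 0.001 OD600 and exposed to peptide dilutions overnight at 37 °C, growth read at 630 nm. For S. aureus USA300, medium effects tested at pH 6.8, 7.2 and 8.0, with 150 mM NaCl, or with 5–10% human serum, mouse plasma or peritoneal fluid.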

[2] = E411-17, read-out: MIC P. aeruginosa E411-17
[3] = E423-17, read-out: MIC E. coli E423-17
[4] = E406-17, read-out: MIC K. pneumoniae E406-17

CC(C)C[C@H](NC(=O)[C@H](CC(C)C)NC(=O)[C@H](CCCCN)NC(=O)[C@H](CC(C)C)NC(=O)CNC(=O)[C@H](CC(C)C)NC(=O)[C@H](CO)NC(=O)[C@H](CC(C)C)NC(=O)[C@H](CC(C)C)NC(=O)[C@H](CC(C)C)NC(=O)[C@H](CCCCN)NC(=O)[C@H](CC(C)C)NC(=O)CN)C(N)=O [DFT561, GLKLLLSLGLKLL] (H-GLKLLLSLGLKLL-NH2; N-terminus and C-terminus assumed)
MIC (S. aureus M838-17 (MRSA); M838-17): 3.1 µM (≈ 4.28 µg/mL)
MIC (S. aureus USA300; USA300): 1.6 µM (≈ 2.21 µg/mL)
MIC SA (S. aureus USA300) (S. aureus USA300; USA300): 1.6 µM (≈ 2.21 µg/mL)
MIC (S. aureus USA300; USA300, pH 6.8): 3.1 µM (≈ 4.28 µg/mL)
MIC (S. aureus USA300; USA300, pH 7.4): 1.6 µM (≈ 2.21 µg/mL)
MIC (S. aureus USA300; USA300, pH 8): 1.6 µM (≈ 2.21 µg/mL)
MIC (P. aeruginosa E411-17; [2]): >50 µM
MIC (E. coli E423-17; [3]): >50 µM
MIC E. faecium V286-17 (VRE) (E. faecium V286-17 (VRE); V286-17 (VRE)): 3.1 to 6.25 µM
MIC (K. pneumoniae E406-17; [4]): >50 µM
Differences in alanine transaminase assay of liver homogenates ([1]; 0, 10, and 20 mg/kg): not observed
Toxicity (conclusion) ([1]; 5 mg/kg): not toxic
Behaviour of mice ([1]; 10 mg/kg i.p.): behaved normal
Weight losses ([1]; 10, 20, 40 mg/kg i.p.): statistically insignificant
Behaviour of mice ([1]; 20 or 40 mg/kg i.p.): reduced activity for 30 minutes

CC(C)C[C@H](NC(=O)[C@H](Cc1c[nH]c2ccccc12)NC(=O)[C@H](Cc1c[nH]c2ccccc12)NC(=O)[C@@H](N)Cc1c[nH]c2ccccc12)C(=O)N[C@@H](CCCNC(=N)N)C(=O)N[C@@H](CCCNC(=N)N)C(=O)N[C@@H](CCCNC(=N)N)C(=O)N[C@@H](Cc1c[nH]c2ccccc12)C(N)=O [Horine, WWWLRRRW] (H-WWWLRRRW-NH2; N-terminus and C-terminus assumed)
MIC (S. aureus USA300; USA300, read-out: MIC S. aureus USA300 (MRSA)): 4 µM (≈ 5.37 µg/mL)
MIC (P. aeruginosa E411-17; [2]): >32 µM
MIC (A. baumannii B26-16; B26-16, read-out: MIC A. baumannii B26-16): 32 µM (≈ 43 µg/mL)
MIC (E. coli E423-17; [3]): >32 µM
MIC (E. faecium V286-17 (VRE); V286-17 (VRE), read-out: MIC E. faecium V286-17 (VRE)): 2 µM (≈ 2.69 µg/mL)
MIC (K. pneumoniae E406-17; [4]): >32 µM
Animal death [1]: no animal death
Mobility [1]: initial short-term reduced mobility

CN[C@H](CC(C)C)C(=O)N[C@H]1C(=O)N[C@@H](CC(N)=O)C(=O)N[C@H]2C(=O)N[C@H]3C(=O)N[C@H](C(=O)N[C@H](C(=O)O)c4cc(O)cc(O)c4-c4cc3ccc4O)[C@H](O)c3ccc(c(Cl)c3)Oc3cc2cc(c3O[C@@H]2O[C@H](CO)[C@@H](O)[C@H](O)[C@H]2O[C@H]2C[C@](C)(N)[C@H](O)[C@H](C)O2)Oc2ccc(cc2Cl)[C@H]1O [Vancomycin]
MIC (S. aureus M838-17 (MRSA); Staphylococcus aureus, MRSA): 0.78 µM (≈ 1.13 µg/mL)
MIC (S. aureus USA300; Staphylococcus aureus, MRSA / USA300, read-out: MIC S. aureus USA300 (MRSA)): 1 µM (≈ 1.45 µg/mL)
MIC (P. aeruginosa E411-17; Pseudomonas aeruginosa, E41117, read-out: MIC P. aeruginosa E411-17): > 8 µM
MIC (A. baumannii B26-16; Acinetobacter baumannii, B2616, read-out: MIC A. baumannii B26-16): > 8 µM
MIC (E. coli E423-17; Escherichia coli, E42317, read-out: MIC E. coli E423-17): > 8 µM
MIC (E. faecium V286-17 (VRE); Enterococcus faecium, VRE, read-out: MIC E. faecium V286-17 (VRE), Table 7): ≥ 12.5 µM
MIC (E. faecium V286-17 (VRE); Enterococcus faecium, VRE, read-out: MIC E. faecium V286-17 (VRE), Table 14): > 8 µM
MIC (K. pneumoniae E406-17; Klebsiella pneumoniae, E40617, read-out: MIC K. pneumoniae E406-17): > 8 µM

CC(C)[C@H](NC(=O)[C@H](Cc1c[nH]c2ccccc12)NC(=O)[C@H](Cc1c[nH]c2ccccc12)NC(=O)[C@H](Cc1c[nH]c2ccccc12)NC(=O)[C@H](Cc1c[nH]c2ccccc12)NC(=O)[C@H](CCCNC(=N)N)NC(=O)[C@H](CCCNC(=N)N)NC(=O)[C@@H](N)CCCNC(=N)N)C(N)=O [Verine, RRRWWWWV] (H-RRRWWWWV-NH2; N-terminus and C-terminus assumed)
MIC S. aureus M838-17 (S. aureus M838-17 (MRSA); Table 12): 3.1 µM (≈ 4.12 µg/mL)
MIC S. aureus USA300 (MRSA) (S. aureus USA300; Table 14): 2 to 4 µM
MIC (S. aureus USA300; Table 17, strain USA300): 2 to 4 µM
MIC P. aeruginosa 411-17 (P. aeruginosa E411-17; Table 12): 12.5 µM (≈ 16.6 µg/mL)
MIC P. aeruginosa E411-17 (P. aeruginosa E411-17; Table 14): 4 to 8 µM
MIC (A. baumannii B26-16; Table 14, read-out: MIC A. baumannii B26-16): 8 µM (≈ 10.6 µg/mL)
MIC (E. coli E423-17; Table 14, read-out: MIC E. coli E423-17): 2 µM (≈ 2.66 µg/mL)
MIC (E. faecium V286-17 (VRE); Table 14, read-out: MIC E. faecium V286-17 (VRE)): 2 µM (≈ 2.66 µg/mL)
MIC K. pneumonia 406-17 (K. pneumoniae E406-17; Table 12): 6.25 µM (≈ 8.31 µg/mL)
MIC (K. pneumoniae E406-17; Table 14, read-out: MIC K. pneumoniae E406-17): 8 µM (≈ 10.6 µg/mL)
Animal death [1]: no animal death
Mobility [1]: initial short-term reduced mobility
